According to ChEMBL document CHEMBL4402613, “Targeting ALK2: An Open Science Approach to Developing Therapeutics for the Treatment of Diffuse Intrinsic Pontine Glioma” (J Med Chem, 2020):
Activity calls are given as the source filed them. The calls are words filed in the database; no cut-off is given here.

Assays:
Activin receptor type-1 [1] = molecular target: Activin receptor type-1 (Homo sapiens, UniProt Q04771, R258G); experiment: Inhibition of ALK2 R258G mutant (unknown origin)
[2] = mouse, in vivo, po, 10 mg/kg, 24 h
Description: Half life in CB17 SCID mouse at 10 mg/kg, po measured up to 24 hrs by LC-MS/MS analysis

[3] = molecular target: T1, Non-receptor tyrosine-protein kinase TNK1 (Homo sapiens) (UniProt Q13470); experiment: Inhibition of TNK1 (unknown origin) at 1 uM
T1 sequence (whole entry): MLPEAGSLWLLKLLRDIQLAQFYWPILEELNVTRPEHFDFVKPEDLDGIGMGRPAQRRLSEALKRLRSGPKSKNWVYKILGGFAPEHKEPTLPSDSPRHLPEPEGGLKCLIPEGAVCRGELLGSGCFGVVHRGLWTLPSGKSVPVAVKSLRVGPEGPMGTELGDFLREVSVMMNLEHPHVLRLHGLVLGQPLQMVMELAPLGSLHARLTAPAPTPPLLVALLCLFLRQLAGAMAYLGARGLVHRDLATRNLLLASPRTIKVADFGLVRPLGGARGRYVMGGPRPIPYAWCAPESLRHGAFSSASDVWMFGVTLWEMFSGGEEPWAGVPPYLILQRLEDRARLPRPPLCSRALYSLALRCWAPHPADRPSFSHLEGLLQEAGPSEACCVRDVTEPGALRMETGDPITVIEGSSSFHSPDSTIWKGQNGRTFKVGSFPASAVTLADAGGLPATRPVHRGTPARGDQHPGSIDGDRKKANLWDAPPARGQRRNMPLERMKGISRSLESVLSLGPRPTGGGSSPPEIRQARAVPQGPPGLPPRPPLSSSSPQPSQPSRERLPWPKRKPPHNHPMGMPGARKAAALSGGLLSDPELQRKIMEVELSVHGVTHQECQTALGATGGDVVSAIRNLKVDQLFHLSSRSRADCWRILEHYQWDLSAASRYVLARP

[4] = molecular target: Bone morphogenetic protein receptor type-1B (Homo sapiens) (UniProt O00238); experiment: Inhibition of ALK6 (unknown origin) at 1 uM
Chain of Bone morphogenetic protein receptor type-1B (Homo sapiens) (O00238 whole entry): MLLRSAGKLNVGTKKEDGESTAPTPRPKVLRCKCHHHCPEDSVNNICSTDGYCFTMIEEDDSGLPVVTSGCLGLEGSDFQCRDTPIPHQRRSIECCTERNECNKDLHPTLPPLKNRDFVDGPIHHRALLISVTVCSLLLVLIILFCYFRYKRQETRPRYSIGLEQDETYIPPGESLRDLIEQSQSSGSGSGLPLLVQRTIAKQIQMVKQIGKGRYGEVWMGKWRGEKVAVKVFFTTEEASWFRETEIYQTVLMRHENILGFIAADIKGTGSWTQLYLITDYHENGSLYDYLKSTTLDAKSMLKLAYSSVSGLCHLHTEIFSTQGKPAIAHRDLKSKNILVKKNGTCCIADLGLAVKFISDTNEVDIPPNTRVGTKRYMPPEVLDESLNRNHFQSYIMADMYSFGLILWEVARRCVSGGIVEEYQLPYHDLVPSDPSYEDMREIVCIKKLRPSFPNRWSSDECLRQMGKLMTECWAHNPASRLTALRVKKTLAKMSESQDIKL

in vitro [5] = details: human, Caco-2
Description: Apparent permeability across basolateral to apical membrane in human Caco2 cells at 5 uM incubated for 120 mins in orbital shaker by LC-QTOF/MS analysis

Activin receptor type-1 [6] = molecular target: Activin receptor type-1 (Homo sapiens, UniProt Q04771, R206H); experiment: Inhibition of human ALK2 R206H mutant using casein as substrate in presence of 10 uM [gamma33P] ATP by radioactive assay
Chain of Activin receptor type-1 (Homo sapiens, UniProt Q04771, R206H) (Q04771 21-509 R206H limits assumed): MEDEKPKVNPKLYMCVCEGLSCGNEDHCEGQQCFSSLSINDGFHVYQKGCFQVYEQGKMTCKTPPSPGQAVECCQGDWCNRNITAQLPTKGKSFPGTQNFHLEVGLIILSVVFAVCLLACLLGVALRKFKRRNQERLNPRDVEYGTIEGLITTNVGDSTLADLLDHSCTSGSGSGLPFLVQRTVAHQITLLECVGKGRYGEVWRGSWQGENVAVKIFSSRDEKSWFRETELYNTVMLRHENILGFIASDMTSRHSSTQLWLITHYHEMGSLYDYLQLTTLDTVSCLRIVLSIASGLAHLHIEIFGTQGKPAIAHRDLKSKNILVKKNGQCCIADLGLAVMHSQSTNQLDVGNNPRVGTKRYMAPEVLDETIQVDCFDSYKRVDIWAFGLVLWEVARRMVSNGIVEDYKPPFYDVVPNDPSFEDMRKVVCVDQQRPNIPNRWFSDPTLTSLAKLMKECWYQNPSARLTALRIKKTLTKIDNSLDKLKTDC

Activin receptor type-1 [7] = molecular target: Activin receptor type-1 (Homo sapiens, UniProt Q04771, G328V); experiment: Inhibition of ALK2 G328V mutant (unknown origin)
Chain of Activin receptor type-1 (Homo sapiens, UniProt Q04771, G328V) (Q04771 21-509 G328V limits assumed): as the sequence (Q04771 21-509 R206H limits assumed) above, with H186R, G308V counted along it

[8] = human, microsomes, 1 h, 1 µM
Description: Microsomal stability in human liver microsomes assessed as parent compound remaining at 1 uM and 37 degree C measured after 60 mins in presence of NADP+ by LC-QTOF/MS analysis

[9] = molecular target: Voltage-gated inwardly rectifying potassium channel KCNH2 (Homo sapiens, UniProt Q12809)
Description: Inhibition of human ERG expressed in HEK293 cells measured after 5 mins by whole cell patch clamp method

[10] = mouse, microsomes, 1 h, 1 µM
Description: Microsomal stability in CD-1 mouse liver microsomes assessed as parent compound remaining at 1 uM and 37 degree C measured after 60 mins in presence of NADP+ by LC-QTOF/MS analysis

in vitro [11] = details: human, Caco-2; remark: listed apart in the source
Description: Apparent permeability across apical to basolateral membrane in human Caco2 cells at 5 uM incubated for 120 mins in orbital shaker by LC-QTOF/MS analysis

[12] = molecular target: Mitogen-activated protein kinase kinase kinase kinase 4 (Homo sapiens) (UniProt O95819); experiment: Inhibition of MAP4K4 (unknown origin) at 1 uM
Chain of Mitogen-activated protein kinase kinase kinase kinase 4 (Homo sapiens) (O95819 2-1239 limits assumed): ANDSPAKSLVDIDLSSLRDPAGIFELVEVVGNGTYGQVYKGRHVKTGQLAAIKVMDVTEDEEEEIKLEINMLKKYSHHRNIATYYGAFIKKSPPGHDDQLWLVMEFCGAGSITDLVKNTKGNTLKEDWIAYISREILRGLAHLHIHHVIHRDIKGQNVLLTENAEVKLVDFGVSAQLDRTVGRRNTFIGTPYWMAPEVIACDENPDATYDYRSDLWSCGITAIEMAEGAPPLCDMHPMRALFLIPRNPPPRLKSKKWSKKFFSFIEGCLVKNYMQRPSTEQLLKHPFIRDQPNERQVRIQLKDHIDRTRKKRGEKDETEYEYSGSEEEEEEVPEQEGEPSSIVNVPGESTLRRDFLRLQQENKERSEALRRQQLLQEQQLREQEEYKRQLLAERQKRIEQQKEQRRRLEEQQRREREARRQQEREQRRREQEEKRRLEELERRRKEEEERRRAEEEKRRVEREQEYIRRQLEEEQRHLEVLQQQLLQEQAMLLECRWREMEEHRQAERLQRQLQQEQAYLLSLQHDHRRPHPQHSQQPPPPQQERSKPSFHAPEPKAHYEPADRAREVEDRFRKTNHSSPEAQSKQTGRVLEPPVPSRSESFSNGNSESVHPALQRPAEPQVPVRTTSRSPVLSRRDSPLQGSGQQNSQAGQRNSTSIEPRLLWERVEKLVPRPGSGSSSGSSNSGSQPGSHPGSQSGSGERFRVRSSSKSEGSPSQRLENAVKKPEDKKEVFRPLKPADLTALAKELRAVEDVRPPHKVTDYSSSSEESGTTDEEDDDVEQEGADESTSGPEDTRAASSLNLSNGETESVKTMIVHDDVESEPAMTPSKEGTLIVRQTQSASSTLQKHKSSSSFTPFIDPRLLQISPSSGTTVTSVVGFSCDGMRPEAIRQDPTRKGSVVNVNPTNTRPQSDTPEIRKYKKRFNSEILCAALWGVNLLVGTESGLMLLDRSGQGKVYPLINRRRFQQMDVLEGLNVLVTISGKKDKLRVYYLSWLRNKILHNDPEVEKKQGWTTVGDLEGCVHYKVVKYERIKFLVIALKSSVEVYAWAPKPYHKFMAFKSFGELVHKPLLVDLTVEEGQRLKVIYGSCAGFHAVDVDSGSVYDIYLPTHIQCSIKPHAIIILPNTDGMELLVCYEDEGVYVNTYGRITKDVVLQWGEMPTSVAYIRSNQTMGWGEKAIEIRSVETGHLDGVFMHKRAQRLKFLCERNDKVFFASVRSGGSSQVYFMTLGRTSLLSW

[13] = molecular target: T2, Serine/threonine-protein kinase A-Raf (Homo sapiens) (UniProt P10398); experiment: Inhibition of ARAF (unknown origin) at 1 uM
T2 sequence (whole entry): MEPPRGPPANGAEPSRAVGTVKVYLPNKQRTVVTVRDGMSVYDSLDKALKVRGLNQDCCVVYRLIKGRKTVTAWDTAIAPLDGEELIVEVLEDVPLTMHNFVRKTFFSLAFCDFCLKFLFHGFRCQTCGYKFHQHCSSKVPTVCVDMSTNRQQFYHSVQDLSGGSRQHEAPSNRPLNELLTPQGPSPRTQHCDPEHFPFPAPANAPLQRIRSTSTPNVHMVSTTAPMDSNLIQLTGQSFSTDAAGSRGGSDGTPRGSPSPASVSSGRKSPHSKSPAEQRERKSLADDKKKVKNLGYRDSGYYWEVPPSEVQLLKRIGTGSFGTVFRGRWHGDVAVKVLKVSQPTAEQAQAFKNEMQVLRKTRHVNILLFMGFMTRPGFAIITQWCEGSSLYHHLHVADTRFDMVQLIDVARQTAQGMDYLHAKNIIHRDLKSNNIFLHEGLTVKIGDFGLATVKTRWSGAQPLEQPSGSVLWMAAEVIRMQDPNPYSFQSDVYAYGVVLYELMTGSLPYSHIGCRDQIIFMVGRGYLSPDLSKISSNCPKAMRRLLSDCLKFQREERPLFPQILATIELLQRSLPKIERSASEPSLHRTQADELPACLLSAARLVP

TGF-beta receptor type-1 = molecular target: T3, TGF-beta receptor type-1 (Homo sapiens, UniProt P36897); format: single protein
T3 sequence (P36897 whole entry): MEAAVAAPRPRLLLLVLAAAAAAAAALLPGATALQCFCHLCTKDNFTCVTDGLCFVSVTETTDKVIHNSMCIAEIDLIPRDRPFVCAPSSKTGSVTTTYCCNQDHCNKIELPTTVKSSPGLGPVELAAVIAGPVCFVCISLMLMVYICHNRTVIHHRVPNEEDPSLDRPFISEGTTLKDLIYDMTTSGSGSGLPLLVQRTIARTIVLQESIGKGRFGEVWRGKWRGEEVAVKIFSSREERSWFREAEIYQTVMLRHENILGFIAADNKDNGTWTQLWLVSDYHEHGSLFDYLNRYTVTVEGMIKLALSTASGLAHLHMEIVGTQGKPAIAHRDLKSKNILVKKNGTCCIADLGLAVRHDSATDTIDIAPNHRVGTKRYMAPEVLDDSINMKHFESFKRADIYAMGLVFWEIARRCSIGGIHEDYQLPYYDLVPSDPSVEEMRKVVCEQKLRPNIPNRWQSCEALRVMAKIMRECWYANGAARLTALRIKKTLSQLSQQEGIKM
Description: Inhibition of human ALK5 using casein as substrate in presence of 10 uM [gamma33P] ATP by radioactive assay

[14] = molecular target: Bone morphogenetic protein receptor type-1A (Homo sapiens) (UniProt P36894); experiment: Inhibition of ALK3 (unknown origin) at 1 uM
Chain of Bone morphogenetic protein receptor type-1A (Homo sapiens) (P36894 whole entry): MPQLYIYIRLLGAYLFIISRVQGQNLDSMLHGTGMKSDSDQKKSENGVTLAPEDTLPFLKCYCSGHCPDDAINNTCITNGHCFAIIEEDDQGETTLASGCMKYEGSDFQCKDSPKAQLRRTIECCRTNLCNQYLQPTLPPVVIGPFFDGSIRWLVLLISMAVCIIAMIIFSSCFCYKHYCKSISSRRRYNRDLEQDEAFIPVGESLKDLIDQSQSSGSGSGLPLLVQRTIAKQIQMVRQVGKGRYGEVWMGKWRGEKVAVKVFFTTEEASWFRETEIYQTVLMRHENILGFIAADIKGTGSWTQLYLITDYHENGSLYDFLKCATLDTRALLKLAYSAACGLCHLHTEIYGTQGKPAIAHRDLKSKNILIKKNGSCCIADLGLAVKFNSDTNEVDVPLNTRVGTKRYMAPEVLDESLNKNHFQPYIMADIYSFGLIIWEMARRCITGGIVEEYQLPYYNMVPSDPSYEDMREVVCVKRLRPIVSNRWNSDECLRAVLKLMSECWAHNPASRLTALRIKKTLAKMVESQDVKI

[15] = molecular target: Misshapen-like kinase 1 (Homo sapiens) (UniProt Q8N4C8); experiment: Inhibition of MINK (unknown origin) at 1 uM
Chain of Misshapen-like kinase 1 (Homo sapiens) (Q8N4C8 whole entry, looked up): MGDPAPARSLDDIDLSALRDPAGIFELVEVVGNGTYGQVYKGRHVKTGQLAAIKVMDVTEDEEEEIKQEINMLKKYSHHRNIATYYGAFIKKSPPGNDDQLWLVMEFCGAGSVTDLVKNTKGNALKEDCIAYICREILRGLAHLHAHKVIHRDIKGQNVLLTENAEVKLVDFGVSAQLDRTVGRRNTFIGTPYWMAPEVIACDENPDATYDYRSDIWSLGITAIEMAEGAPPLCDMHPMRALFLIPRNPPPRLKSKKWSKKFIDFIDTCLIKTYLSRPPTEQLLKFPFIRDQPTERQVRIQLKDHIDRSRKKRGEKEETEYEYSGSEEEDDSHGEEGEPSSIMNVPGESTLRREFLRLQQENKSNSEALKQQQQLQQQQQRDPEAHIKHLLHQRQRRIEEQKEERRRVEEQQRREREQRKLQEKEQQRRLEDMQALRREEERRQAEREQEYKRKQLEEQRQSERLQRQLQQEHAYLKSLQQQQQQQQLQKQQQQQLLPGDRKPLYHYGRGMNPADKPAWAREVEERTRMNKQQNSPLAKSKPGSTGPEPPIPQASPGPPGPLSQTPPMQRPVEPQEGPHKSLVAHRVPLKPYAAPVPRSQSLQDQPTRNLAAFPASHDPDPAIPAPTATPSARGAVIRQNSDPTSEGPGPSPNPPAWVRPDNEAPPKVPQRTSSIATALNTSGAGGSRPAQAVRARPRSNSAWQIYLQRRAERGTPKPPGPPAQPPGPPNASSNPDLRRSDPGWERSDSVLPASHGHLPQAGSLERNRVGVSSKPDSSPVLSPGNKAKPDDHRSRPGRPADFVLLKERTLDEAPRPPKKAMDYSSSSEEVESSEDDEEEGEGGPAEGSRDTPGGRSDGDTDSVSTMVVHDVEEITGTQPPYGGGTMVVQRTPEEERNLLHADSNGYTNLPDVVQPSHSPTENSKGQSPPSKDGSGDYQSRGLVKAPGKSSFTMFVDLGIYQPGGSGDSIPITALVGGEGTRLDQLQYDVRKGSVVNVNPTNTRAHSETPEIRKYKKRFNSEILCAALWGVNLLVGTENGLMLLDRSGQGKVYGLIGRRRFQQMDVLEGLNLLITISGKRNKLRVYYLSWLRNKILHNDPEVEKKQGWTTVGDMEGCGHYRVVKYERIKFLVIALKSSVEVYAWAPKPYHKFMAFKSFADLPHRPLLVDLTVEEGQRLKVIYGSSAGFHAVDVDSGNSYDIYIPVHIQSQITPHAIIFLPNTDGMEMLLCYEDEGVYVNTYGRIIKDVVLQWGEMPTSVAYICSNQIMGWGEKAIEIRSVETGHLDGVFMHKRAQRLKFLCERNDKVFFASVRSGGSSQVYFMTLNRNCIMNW

Chain of Activin receptor type-1 (Homo sapiens, UniProt Q04771, R258G) (Q04771 21-509 R258G limits assumed): as the sequence (Q04771 21-509 R206H limits assumed) above, with H186R, R238G counted along it

For COc1cc(-c2cncc(-c3ccc(N4CCN(C)CC4)cc3)c2C)cc(F)c1C(N)=O, the IC50 (Activin receptor type-1 [1]) was 17 nM, the t1/2 [2] was 2.56 h and the inhibition [3] was “Active”. The inhibition [4] was “Active”, the Papp B→A at 2 h, 5 µM (in vitro [5]) was 16.2 ×10⁻⁶ cm/s and the IC50 (Activin receptor type-1 [6]) was 19 nM. The IC50 (Activin receptor type-1 [7]) was 16 nM, the Stability [8] was “Stable” and the IC50 [9] was over 30000 nM. The Stability [10] was “Stable”, the Papp A→B at 2 h, 5 µM (in vitro [11]) was 5.5 ×10⁻⁶ cm/s and the inhibition [12] was “Active”. For the same molecule, the inhibition [13] was “Active”, the IC50 (TGF-beta receptor type-1) was 1050 nM and the inhibition [14] was “Active”. For the same molecule, the inhibition [15] was “Active”.
